Blank lines part the entries; values can stand above or below the molecule they belong to.
Experiments:
[1] = target: DNA polymerase β (Homo sapiens, UniProt P06746); conditions: in vitro, compared with dCMP (Copeland et al., 1992); cited from earlier work
[2] = system: E. coli SC 18-12; assay: Functionality check of pZHTkβ: survival of E. coli SC 18-12; format: cell-based; conditions: Zeocine 25 μg/ml
Excerpt: The functionality of the construct was checked using E. coli bacterial strains,
1—either by transforming the strain SC 18-12 for the expression of pol β,

[3] = target: T1, pol β (Rattus norvegicus, UniProt P06766); assay: DNA replication test with extracts of pol β-transfected B16 cells; format: biochemical; conditions: extracts of B16 cells transfected with pUT-pol β
T1 construct: expressed in transfected cells; host or cells: B16 mouse melanoma cells transfected with pUT-pol β; cell extracts

Structure (SMILES): Nc1ccn([C@H]2CC[C@@H](COP(=O)(O)O)O2)c(=O)n1 [ddCMP]
- Efficacy of incorporation by DNA polymerase β [1]: comparable to that observed for the incorporation of the natural antagonist dCMP

Structure (SMILES): Cc1c(N)nc([C@H](CC(N)=O)NC[C@H](N)C(N)=O)nc1C(=O)N[C@H](C(=O)N[C@H](C)[C@@H](O)[C@H](C)C(=O)N[C@H](C(=O)NCCC1=N[C@@H](c2nc(C(=O)NCCCCN=C(N)N)cs2)CS1)[C@@H](C)O)[C@@H](O[C@@H]1O[C@@H](CO)[C@@H](O)[C@H](O)[C@@H]1O[C@H]1O[C@H](CO)[C@@H](O)[C@H](OC(N)=O)[C@@H]1O)c1cnc[nH]1 [Zeocine]
- Survival (%) ([2]; SC 18-12/pZHTkβ): 97%
- Survival (%) ([2]; SC 18-12 non-transformed): 5%

- In vitro incorporation into the G-rich nucleotide substrate [3]: allowed an in vitro incorporation
Structure (SMILES): Nc1ccn([C@H]2CC[C@@H](COP(=O)(O)OP(=O)(O)OP(=O)(O)O)O2)c(=O)n1 [triphosphorylated ddC]

— patent US6475996B1, “Use of a vector expressing DNA polymerase β as medicine” (Centre National De La Recherche Scientifique (CNRS), priority 1996, dated 2002)
